What all share (type): cell-based
In data set [1] the test system is Leishmania donovani promastigotes. Nature of the data set: Antileishmanial activity, 96-well plates. The note with it: for IC50: Leishmania donovani; for IC50 / IC100 Leishmania donovani: promastigotes, 72 h, 24°C; for lethal activity: Leishmania donovani promastigotes, result in words. The protocol: (§1) Entamoeba histolytica HK-9 strain (ATCC number 30015) was cultured in LYI-S-2 medium supplemented with antibiotics. Giardia intestinalis WB strain (ATCC number 30957) was grown in a modified YI-S medium with antibiotics. Both parasites were cultivated in 15-mL screw-capped borosilicate glass tubes containing 13 mL medium. The tubes were incubated on a 15° horizontal slant at (36-37) °C. Culture maintenance and subculturing was performed as described by Clark and Diamond. Entamoeba and Giardia were harvested from confluent cultures by chilling of the tubes on ice for 5-10 min to detach cells, followed by centrifugation at 800 x g for 5 min. Leishmania donovani and L. tropica promastigotes were cultured in Schneider's medium containing 20 % foetal calf serum and antibiotics at 24°C. Stationary phase promastigotes were harvested by centrifugation at 1000 x g for 10 min.
(§2) The antileishmanial activity of metronidazole-derivatives was tested in 96-well plates. Each of the meronidazole-derivatives and the reference drugs were dissolved in 10 µL of dimethyl sulfoxide (DMSO) and were completed with […] growth medium. The solutions were filter sterilized using 0.22 µm syringe filters. Then, 170 µL-two fold serial dilutions of each of the compounds and metronidazole starting at a concentration of 2000 µg/mL in culture medium were prepared in flat bottomed 96-well microtiter plates of 400-µL-well-capacity. A suspension containing 10^5 of Leishmania promastigotes per milliliter culture medium was prepared and 170-µL portions of the suspension were added to the appropriate wells. Plates were covered with the microtiter plate lids and incubated at 24°C. The number of parasites in each well was determined after 72 h by counting in a hemacytometer at the 10X objective lens. Leishmania viability was determined by observing promastigote motility. Each compound was assayed in duplicate in each of three independent experiments. In each assay two sets of controls were performed, one without any test compound and another with amphotericin B as a standard antileishmanial drug.
(§3) The minimal inhibitory concentration (MIC) defined as the minimum concentration of a compound at which no parasitic growth was observed. The 50% inhibitory concentration (IC50) was the concentration of compounds which cut the number of parasites to half that in the negative control (growth medium + DMSO + parasites).

Data set [2] concerns Leishmania tropica promastigotes. Nature of the data set: Antileishmanial activity, 96-well plates. The note with it: for IC50: Leishmania tropica; for IC50 / IC100 Leishmania tropica: promastigotes, 72 h, 24°C; for lethal activity: Leishmania tropica promastigotes, result in words. The protocol: as §1, §2, §3
Data set [3] concerns Giardia intestinalis WB strain. The experiment in a line: Antigiardial activity, tube method. The note with it: for IC100 Giardia intestinalis / IC50: 72 hours, (36-37) °C, parasite count; for IC50: Giardia duodenalis; for lethal activity / IC50 times less than that of metronidazole: Giardia intestinalis; for lethal activity: result in words; for IC50 times less than that of metronidazole: relative to the standard drug metronidazole. The protocol: as §1
(§4) The antiamoebic and antigiardial activities of metronidazole-derivatives were tested using the tube method according to published procedures with some modifications. Eight milligrams of a test compound or metronidazole were dissolved in 10 µL of dimethyl sulfoxide (DMSO) and completed with 10 mL growth medium. The solutions were filter sterilized using 0.22 µm syringe filters and the appropriate volumes of the solutions were taken to prepare the concentrations of each compound in 15-mL screw-capped borosilicate glass tubes. For each compound, concentrations of 60, 30, 15, 7.5, 3.5, 1.7, 0.8, 0.4, 0.2, 0.1, 0.05, 0.02, 0.01, 0.005 µg/mL medium were prepared in a final volume of 15 mL to exclude air from the tube. For more accurate determination of the biologically active concentration of the compound, other concentrations around the above mentioned ones were also tested. Each tube was inoculated with 20,000 cells of the parasite under testing (Entamoeba or Giardia). Each compound was assayed in duplicate in each of three independent experiments. In each assay, two sets of controls were performed, one without any test compound and another with metronidazole. The caps of Entamoeba and Giardia tubes were tightly screwed and wrapped with parafilm. The tubes were incubated on a 15° horizontal slant at (36-37) °C for 72 hours.
(§5) The number of parasites in the tubes was determined as described in the literature by counting in a hemacytometer at the 10X objective. For counting of Entamoeba and Giradia, the tubes were placed on ice to permit detachment of the parasite and centrifuged at 1000 x g for 10 min. The supernatant was discarded and 1 mL fresh medium was added to each tube. Then, 25 µL of the parasite suspension in each tube was mixed with 100 µL of 0.4 % trypan blue in phosphate buffered saline (PBS) to distinguish viable from dead parasites.
as §3

The test system of data set [4] is Entamoeba histolytica HK-9 strain. Nature of the data set: Antiamoebic activity, tube method. The note with it: for IC100 Entamoeba histolytica / IC50: 72 hours, (36-37) °C, parasite count; for lethal activity / IC50 / IC50 times less than that of metronidazole: Entamoeba histolytica; for lethal activity: result in words; for IC50 times less than that of metronidazole: relative to the standard drug metronidazole. The protocol: as §1, §4, §5, §3

For another data set, the system named is Vero cells. Nature of the data set: Cytotoxicity assay, trypan blue exclusion. The note with it: compared with the standard drug. The protocol:
(§6) The cytotoxicity of the metronidazole-derivatives and the reference drugs was investigated on Hep-2 and Vero cells using the standard cytotoxicity assay and the trypan blue exclusion method, as described in the literature, with modifications. A cell suspension (10^5 cells/mL RPMI medium containing 10% inactivated foetal calf serum) was prepared from confluent cultures and 100 µL portions of the suspension were added to the wells of 96-well plates. The cells were incubated for 24 h at 37 °C and 5 % CO2 and the medium in each well was then replaced with fresh 150 µL medium. Solutions of the test compounds or reference drugs were prepared and sterilized as described above (Antiprotozolal activity). Then, 150 µL-two fold serial dilutions of each of the compounds and the reference drugs starting at a concentration of 2000 µg/mL in culture medium were prepared in the plates. After 48 hour incubation at 37 °C and 5 % CO2, the number of cells in each well was determined as follows: The medium in each well was gently replaced with 100 µL of 0.25% (w/v) trypsin-0.53 mM EDTA solution and the plates were incubated for 5 minute at 37 °C to detach the cells followed by the addition of 200 µL of trypan blue solution were added to each well and the plates were, then, placed on ice. The cells were counted in a hemacytometer at the 10X objective. Each compound or reference drug was assayed in duplicate in each of three independent experiments. In each assay the negative controls (without any test compound or reference drug) were included in duplicates. IC0 was the concentration of compound at which the number of cells in the well was more than or equal to that of the negative control (IC0 = no inhibition of cell growth). Table 1. Antiamoebic and antigiardial activities of compounds IA, IIA, and IIIA

For another data set, the system named is Hep-2 cells. Nature of the data set: Cytotoxicity assay, trypan blue exclusion. The note with it: compared with the standard drug. The protocol:
as §6

Consider five molecules from patent EP2085394B1, “Metronidazole derivatives as antiparasitic agents” (University of Jordan, priority 2008, dated 2009).

In brackets after ≈: the same amount, converted by molar mass.

Regarding `C[C@@H]1[C@H](O)[C@@H](C)/C=C/C=C/C=C/C=C/C=C/C=C/C=C/[C@H](O[C@@H]2O[C@H](C)[C@@H](O)[C@H](N)[C@@H]2O)C[C@@H]2O[C@](O)(C[C@@H](O)C[C@@H](O)[C@H](O)CC[C@@H](O)C[C@@H](O)CC(=O)O[C@H]1C)C[C@H](O)[C@H]2C(=O)O` [Amphotericin B, reference compound], in data set [1], the IC50 was found to be 0.08 µg/mL (≈ 0.0866 µM) and the “IC100 Leishmania donovani” value turned out to be 2.5 µg/mL. Further, in data set [2], 0.08 µg/mL (≈ 0.0866 µM) corresponded to half-maximal inhibition (IC50) and the “IC100 Leishmania tropica” value turned out to be 2.5 µg/mL.

As for `Cc1ncc([N+](=O)[O-])n1CCOc1ccc(C=O)cc1` [Compound IA, 4-[2-(2-methyl-5-nitro-1H-imidazol-1-yl)ethoxy]benzaldehyde], in data set [3], the “IC100 Giardia intestinalis” value is on record as 0.14 µg/mL, the IC50 was 0.01 µg/mL (≈ 0.0363 µM), the lethal activity entry is reported as “potent lethal activity” and the “IC50 times less than that of metronidazole” value (from here on “IC50 times less than that”) was determined as 80 times. Also, in data set [1], the lethal activity result is recorded as “lethal activity”, half-maximal inhibition (IC50) required 300 µg/mL (≈ 1090 µM) and the “IC100 Leishmania donovani” value turned out to be 2000 µg/mL. Further, in data set [2], the lethal activity result is recorded as “lethal activity”, the IC50 came out at 150 µg/mL (≈ 545 µM) and the “IC100 Leishmania tropica” value is given as 2000 µg/mL. In data set [4], the “IC100 Entamoeba histolytica” value stood at 0.14 µg/mL, the lethal activity result is “potent lethal activity”, half-maximal inhibition (IC50) required 0.01 µg/mL (≈ 0.0363 µM) and the “IC50 times less than that” value is given as 80 times. In addition, the cytotoxicity result with Vero cells was “equivalent in cytotoxicity to the standard drug”. In addition, in the data set on Hep-2 cells, the cytotoxicity entry is reported as “equivalent in cytotoxicity to the standard drug”.

As for `Cc1ncc([N+](=O)[O-])n1CCNS(=O)(=O)c1sc(Cl)cc1Br` [IIA], in data set [3], the “IC100 Giardia intestinalis” value is recorded as 0.3 µg/mL, the IC50 amounted to 0.04 µg/mL (≈ 0.0931 µM), the lethal activity entry is given as “potent lethal activity” and the “IC50 times less than that” value is 20 times. Further, in data set [1], the lethal activity result is recorded as “lethal activity”, the IC50 came to 300 µg/mL (≈ 698 µM) and the “IC100 Leishmania donovani” value worked out at 2000 µg/mL. Also, in data set [2], the lethal activity entry is given as “lethal activity”, the IC50 amounted to 150 µg/mL (≈ 349 µM) and the “IC100 Leishmania tropica” value was found to be 2000 µg/mL. Also, in data set [4], the “IC100 Entamoeba histolytica” value amounted to 0.3 µg/mL, the lethal activity result was “potent lethal activity”, it took 0.04 µg/mL (≈ 0.0931 µM) to reach half-maximal inhibition (IC50) and the “IC50 times less than that” value stood at 20 times. Moreover, the cytotoxicity result in the data set with Vero cells was “equivalent in cytotoxicity to the standard drug”. The cytotoxicity entry in the data set on Hep-2 cells was “equivalent in cytotoxicity to the standard drug”.

Regarding `Cc1ncc([N+](=O)[O-])n1CCN1CCN(CCO)CC1` [IIIA], in data set [3], the “IC100 Giardia intestinalis” value turned out to be 0.8 µg/mL, 0.04 µg/mL (≈ 0.141 µM) corresponded to half-maximal inhibition (IC50), the lethal activity entry is listed as “potent lethal activity” and the “IC50 times less than that” value turned out to be 20 times. In data set [1], the lethal activity result is listed as “lethal activity”; the midpoint of inhibition, the IC50, lay at 62.5 µg/mL (≈ 221 µM); the “IC100 Leishmania donovani” value was 250 µg/mL. In data set [2], the lethal activity result is “lethal activity”, inhibition was half-maximal at 62.5 µg/mL (≈ 221 µM) (IC50) and the “IC100 Leishmania tropica” value came to 250 µg/mL. In data set [4], the “IC100 Entamoeba histolytica” value is reported as 0.8 µg/mL, the lethal activity result is on record as “potent lethal activity”, the IC50 amounted to 0.04 µg/mL (≈ 0.141 µM) and the “IC50 times less than that” value stood at 20 times. Also, the cytotoxicity entry in the data set with Vero cells is reported as “equivalent in cytotoxicity to the standard drug”. In the data set with Hep-2 cells, the cytotoxicity result was “equivalent in cytotoxicity to the standard drug”.

Regarding `Cc1ncc([N+](=O)[O-])n1CCO` [Metronidazole, 2-(2-methyl-5-nitro-1H-imidazol-1-yl) ethanol], in data set [3], the “IC100 Giardia intestinalis” value is 3.2 µg/mL. The IC50 in data set [3] worked out at 0.8 µg/mL (≈ 4.67 µM); in data set [1], 2000 µg/mL (≈ 11700 µM); in data set [2], 2000 µg/mL (≈ 11700 µM); in data set [4], 0.8 µg/mL (≈ 4.67 µM). In addition, the “IC100 Entamoeba histolytica” value in data set [4] stood at 3.2 µg/mL.

One may read the IC50 as the concentration needed to halve the response being measured. The low end stands for higher potency, the high end for lower potency.
